26 molecules from PubChem BioAssay AID330 (DTP/NCI, 2004) can be followed below.

The test system of the assay is P388 leukemia ip, CD2F1 mice, survival T/C. Nature of the assay: NCI In Vivo Anticancer Drug Screen. Data for tumor model P388 Leukemia (intraperitoneal) in CD2F1 (CDF1) mice. Conditions: endpoint: median survival time, higher = longer survival. In short, it runs like this: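 Mice carrying the transplanted tumor received test compound or vehicle. Survival was recorded in each group, and the value is the treated-group measurement divided by that of the vehicle-treated control group.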

Where [1] appears, read: dose: 60.0 mg/kg/injection, schedule: Q01DX005 (ip), vehicle: saline with Tween-80.
Where [2] appears, read: dose: 120.0 mg/kg/injection, schedule: Q01DX005 (ip), vehicle: saline with Tween-80.
Setting [3] is: dose: 240.0 mg/kg/injection, schedule: Q01DX005 (ip), vehicle: saline with Tween-80.
Where [4] appears, read: dose: 50.0 mg/kg/injection, schedule: Q01DX009 (ip), vehicle: saline with Tween-80.
[5] abbreviates: dose: 100.0 mg/kg/injection, schedule: Q01DX009 (ip), vehicle: saline with Tween-80.
[6] abbreviates: dose: 200.0 mg/kg/injection, schedule: Q01DX009 (ip), vehicle: saline with Tween-80.
[7] abbreviates: dose: 100.0 mg/kg/injection, schedule: Q01DX001 (ip), vehicle: Klucel (hydroxypropylcellulose) (HPC).
[8] abbreviates: dose: 200.0 mg/kg/injection, schedule: Q01DX001 (ip), vehicle: Klucel (hydroxypropylcellulose) (HPC).
[9] abbreviates: dose: 400.0 mg/kg/injection, schedule: Q01DX001 (ip), vehicle: Klucel (hydroxypropylcellulose) (HPC).
Setting [10] is: dose: 50.0 mg/kg/injection, schedule: Q01DX005 (ip), vehicle: saline with Tween-80.
The mark [11] stands for this setting: dose: 100.0 mg/kg/injection, schedule: Q01DX005 (ip), vehicle: saline with Tween-80.
[12] abbreviates: dose: 100.0 mg/kg/injection, schedule: Q01DX001 (ip), vehicle: saline with Tween-80.
The mark [13] stands for this setting: dose: 200.0 mg/kg/injection, schedule: Q01DX001 (ip), vehicle: saline with Tween-80.
[14] abbreviates: dose: 400.0 mg/kg/injection, schedule: Q01DX001 (ip), vehicle: saline with Tween-80.
Setting [15] is: dose: 200.0 mg/kg/injection, schedule: Q01DX005 (ip), vehicle: saline with Tween-80.
Where [16] appears, read: dose: 50.0 mg/kg/injection, schedule: Q01DX005 (ip), vehicle: Klucel (hydroxypropylcellulose) (HPC).
[17] abbreviates: dose: 100.0 mg/kg/injection, schedule: Q01DX005 (ip), vehicle: Klucel (hydroxypropylcellulose) (HPC).

Each structure is given as a SMILES string. Values joined by “and” are separate entries in the source; they are usually repeats but may differ in a detail not shown here. Identical values can stand only once. Toxic doses and inconclusive results are not listed. Square brackets hold non-standard residues; d marks the D form. Peptide text beside a SMILES is read from it. Tyr(3-NO2) = N[CH](Cc1ccc(O)c([N+](=O)[O-])c1)C(=O)O

With `CC(NNC(=S)N1CCN(c2ccccn2)CC1)c1nccc2ccccc12` (configuration not stated), the T/C runs as follows: (dose: 12.5 mg/kg/injection, schedule: Q04DX002 (ip), vehicle: Klucel (hydroxypropylcellulose) (HPC)) 100 % of control; (dose: 25.0 mg/kg/injection, schedule: Q04DX002 (ip), vehicle: Klucel (hydroxypropylcellulose) (HPC)) 100 % of control; (dose: 50.0 mg/kg/injection, schedule: Q04DX002 (ip), vehicle: Klucel (hydroxypropylcellulose) (HPC)) 103 % of control; (dose: 100.0 mg/kg/injection, schedule: Q04DX002 (ip), vehicle: Klucel (hydroxypropylcellulose) (HPC)) 122 % of control and 124 % of control; (dose: 200.0 mg/kg/injection, schedule: Q04DX002 (ip), vehicle: Klucel (hydroxypropylcellulose) (HPC)) 96 % of control.

Regarding `c1ccc(-c2cc3c(cc4c5nncn5ncn34)o2)cc1`, the T/C is 86 % of control under setting [1]; 86 % of control under setting [2]; 91 % of control and 92 % of control under setting [3].

On to `Nc1nc(CC(N)C(=O)O)c[se]1` (configuration not stated), for which the T/C is 97 % of control (dose: 60.0 mg/kg/injection, schedule: Q01DX005 (ip), vehicle: saline); 100 % of control (dose: 120.0 mg/kg/injection, schedule: Q01DX005 (ip), vehicle: saline); 100 % of control (dose: 240.0 mg/kg/injection, schedule: Q01DX005 (ip), vehicle: saline).

For the molecule `CCCCCCCC(=O)OOC(C)(C)C`, the T/C by setting is: under setting [1], 105 % of control; under setting [2], 105 % of control; under setting [3], 108 % of control.

In the case of `Clc1ccc([Si]23OCCN(CCO2)CCO3)cc1`, the T/C (dose: 0.19 mg/kg/injection, schedule: Q01DX009 (ip), vehicle: Klucel (hydroxypropylcellulose) (HPC)) was 93 % of control; the T/C (dose: 0.39 mg/kg/injection, schedule: Q01DX009 (ip), vehicle: Klucel (hydroxypropylcellulose) (HPC)) is 99 % of control; the T/C (dose: 0.78 mg/kg/injection, schedule: Q01DX009 (ip), vehicle: Klucel (hydroxypropylcellulose) (HPC)) is 108 % of control.

For `CCOc1ccc2nc3cc(N=Nc4c(C)c(CN(CC)CC)cc(C)c4O)ccc3c(N)c2c1`, the T/C runs as follows: under setting [4], 108 % of control; under setting [5], 100 % of control; under setting [6], 106 % of control.

As for `CCOC(=O)/C(C#N)=C/N1CCCC1`, the T/C by setting is: (dose: 6.25 mg/kg/injection, schedule: Q01DX005 (ip), vehicle: saline with Tween-80) 107 % of control; (dose: 12.5 mg/kg/injection, schedule: Q01DX005 (ip), vehicle: saline with Tween-80) 96 % of control; (dose: 25.0 mg/kg/injection, schedule: Q01DX005 (ip), vehicle: saline with Tween-80) 104 % of control.

On to `O=C(O)c1cc(C(=O)CCCCC(=O)c2cc(C(=O)O)c(O)c3ccccc23)c2ccccc2c1O`, for which the T/C runs as follows: under setting [4], 90 % of control; under setting [5], 90 % of control; under setting [6], 92 % of control.

In the case of `CCNC(=O)OCc1c(Cl)nc2sccn12`, the T/C under setting [7] was 106 % of control, the T/C under setting [8] was 107 % of control and the T/C under setting [9] was 100 % of control.

Take `CCN(CC)c1nc(/C=C\c2ccc(N(C)C)cc2)c2nccnc2n1`: the T/C is, setting by setting: (dose: 50.0 mg/kg/injection, schedule: Q01DX009 (ip), vehicle: Klucel (hydroxypropylcellulose) (HPC)) 95 % of control; (dose: 100.0 mg/kg/injection, schedule: Q01DX009 (ip), vehicle: Klucel (hydroxypropylcellulose) (HPC)) 90 % of control; (dose: 200.0 mg/kg/injection, schedule: Q01DX009 (ip), vehicle: Klucel (hydroxypropylcellulose) (HPC)) 94 % of control.

For `O=C(N/N=C\c1c(O)ccc2ccccc12)c1ccncc1`, the T/C by setting is: under setting [10], 104 % of control; under setting [11], 105 % of control.

Take `CCC(=O)Nc1cc(Cl)cc2[nH]c(C)nc12`: the T/C under setting [4] was 110 % of control, the T/C under setting [5] was 99 % of control and the T/C under setting [6] was 102 % of control.

`CCCCCCCOCC(=O)O`: the T/C by setting is: under setting [4], 100 % of control; under setting [5], 94 % of control.

`Cc1ccccc1Nc1n[nH]c(=S)s1`: the T/C runs as follows: (dose: 50.0 mg/kg/injection, schedule: Q04DX003 (ip), vehicle: saline with Tween-80) 95 % of control; (dose: 100.0 mg/kg/injection, schedule: Q04DX003 (ip), vehicle: saline with Tween-80) 100 % of control; (dose: 200.0 mg/kg/injection, schedule: Q04DX003 (ip), vehicle: saline with Tween-80) 95 % of control.

With `CCC(c1ccc(OC)cc1)C(NCC(=O)N/N=C1\C[C@@H]2[C@H](CC[C@]3(C)[C@@H](O)CC[C@@H]23)c2c(C)cc(O)cc21)c1ccc(OC)cc1` (some centres not stated), the T/C is 106 % of control under setting [12], 107 % of control under setting [13] and 101 % of control under setting [14].

As for `COc1ccc(C2OC23Cc2ccccc2C3=O)cc1OC` (configuration not stated), the T/C is 109 % of control under setting [4], 100 % of control under setting [5] and 88 % of control under setting [6].

Turning to `O=C1C=CC2(C=C1)N=C(c1ccccc1)C=C2c1ccccc1`, the T/C under setting [10] was 101 % of control, the T/C under setting [11] is 97 % of control and the T/C under setting [15] was 93 % of control.

On to `CNC(=O)Oc1ccc(Nc2ccccc2)cc1`, for which the T/C is 105 % of control (dose: 60.0 mg/kg/injection, schedule: Q01DX005 (ip), vehicle: Klucel (hydroxypropylcellulose) (HPC)); 99 % of control (dose: 120.0 mg/kg/injection, schedule: Q01DX005 (ip), vehicle: Klucel (hydroxypropylcellulose) (HPC)); 97 % of control (dose: 240.0 mg/kg/injection, schedule: Q01DX005 (ip), vehicle: Klucel (hydroxypropylcellulose) (HPC)).

With `CC(SCc1ccccc1)C(NC(=O)CCl)C(=O)O` (configuration not stated), the T/C under setting [12] is 100 % of control, the T/C under setting [13] is 97 % of control and the T/C under setting [14] was 91 % of control.

Turning to `CCOC(=O)C1C(=O)CN(C(=O)OC)C1C(=O)OCC` (configuration not stated), the T/C reads like this: under setting [10], 99 % of control; under setting [11], 95 % of control; under setting [15], 95 % of control.

Turning to `C1CCCCCc2c(-c3noc4c3CCCCCCCCCC4)noc2CCCC1`, the T/C runs as follows: (dose: 60.0 mg/kg/injection, schedule: Q01DX005 (ip), vehicle: Klucel + Tween-80) 105 % of control; (dose: 120.0 mg/kg/injection, schedule: Q01DX005 (ip), vehicle: Klucel + Tween-80) 97 % of control; (dose: 240.0 mg/kg/injection, schedule: Q01DX005 (ip), vehicle: Klucel + Tween-80) 100 % of control.

`Nc1nc(N)c(Cc2ccccn2)cc1Cc1ccccn1`: the T/C under setting [16] is 98 % of control and the T/C under setting [17] is 103 % of control.

`CC1COC2(CCC(=CC(=O)O)CC2)O1` (configuration not stated): the T/C under setting [7] is 100 % of control, the T/C under setting [8] was 102 % of control and the T/C under setting [9] is 97 % of control.

For `NC(=O)C(Cc1ccc(O)c([N+](=O)[O-])c1)NC(=O)C(N)Cc1ccccc1` (configuration not stated) (H-Phe-[Tyr(3-NO2)]-NH2; configuration not given here), the T/C under setting [16] was 103 % of control; the T/C under setting [17] is 96 % of control; the T/C (dose: 200.0 mg/kg/injection, schedule: Q01DX005 (ip), vehicle: Klucel (hydroxypropylcellulose) (HPC)) is 96 % of control.

As to `COc1ccc(/C=C2/SC(=S)N(Cc3ccco3)C2=O)cc1`, the T/C runs as follows: (dose: 6.25 mg/kg/injection, schedule: Q01DX009 (ip), vehicle: saline with Tween-80) 100 % of control; (dose: 12.5 mg/kg/injection, schedule: Q01DX009 (ip), vehicle: saline with Tween-80) 91 % of control; under setting [6], 86 % of control.

Regarding `CCCCCCCCCCCCCCCC[N+]1(CC)CCCCCC1`, the T/C runs as follows: (dose: 0.04 mg/kg/injection, schedule: Q01DX009 (ip), vehicle: saline) 110 % of control; (dose: 0.09 mg/kg/injection, schedule: Q01DX009 (ip), vehicle: saline) 103 % of control and 88 % of control; (dose: 0.19 mg/kg/injection, schedule: Q01DX009 (ip), vehicle: saline) 89 % of control.
